Legend:
horseweed = assay: Test C postemergence; assay type: in vivo, Erigeron canadensis; conditions: 10 days
Procedure, shortened: (§1)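 Seeds in loam–sand blend received preemergence directed soil spray of test chemicals in non-phytotoxic solvent with surfactant; postemergence treatment was applied at one- to two-leaf stage (2–10 cm). After 10 days in greenhouse, injury rated visually versus untreated controls, 0 (no effect) to 100 (complete control).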

soybean [1] = assay: Test C preemergence; assay type: in vivo, Glycine max; conditions: 0 to 100 scale (0 no effect, 100 complete control)
Procedure, shortened: as §1

corn [2] = assay: Test C preemergence; assay type: in vivo, Zea mays; conditions: 0 to 100 scale (0 no effect, 100 complete control)
Procedure, shortened: as §1

pigweed, palmer [3] = assay: Test C postemergence; assay type: in vivo, Amaranthus palmeri; conditions: 10 days
Procedure, shortened: as §1

barnyardgrass [4] = assay: Test C postemergence; assay type: in vivo, Echinochloa crusgalli; conditions: 10 days
Procedure, shortened: as §1

rice = assay: Test D flooded paddy test; assay type: in vivo, Oryza sativa; conditions: 250 g ai/ha, applied to paddy water, visual rating after 13 to 14 days, scale 0 to 100 (0 no effect, 100 complete control)
Procedure, shortened: (§2)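 Seedlings reached the 2-leaf stage, then pots were flooded to 3 cm over the soil surface. Compound was applied into the water, depth was maintained, and plants stayed in the greenhouse 13 to 14 days before visual scoring (0–100) relative to controls.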

green foxtail [5] = assay: Test C preemergence; assay type: in vivo, Setaria viridis; conditions: 0 to 100 scale (0 no effect, 100 complete control)
Procedure, shortened: as §1

kochia [6] = assay: Test C preemergence; assay type: in vivo, Bassia scoparia; conditions: 0 to 100 scale (0 no effect, 100 complete control)
Procedure, shortened: as §1

oat, wild [7] = assay: Test C postemergence; assay type: in vivo, Avena fatua; conditions: 10 days
Procedure, shortened: as §1

ryegrass, Italian [8] = assay: Test C postemergence; assay type: in vivo, Lolium multiflorum; conditions: 10 days
Procedure, shortened: as §1

wheat [9] = assay: Test C preemergence; assay type: in vivo, Triticum aestivum; conditions: 0 to 100 scale (0 no effect, 100 complete control)
Procedure, shortened: as §1

oat, wild [10] = assay: Test C preemergence; assay type: in vivo, Avena fatua; conditions: 0 to 100 scale (0 no effect, 100 complete control)
Procedure, shortened: as §1

pigweed, palmer [11] = assay: Test C preemergence; assay type: in vivo, Amaranthus palmeri; conditions: 0 to 100 scale (0 no effect, 100 complete control)
Procedure, shortened: as §1

ragweed [12] = assay: Test C postemergence; assay type: in vivo, Ambrosia artemisiifolia; conditions: 10 days
Procedure, shortened: as §1

blackgrass [13] = assay: Test C preemergence; assay type: in vivo, Alopecurus myosuroides; conditions: 0 to 100 scale (0 no effect, 100 complete control)
Procedure, shortened: as §1

ragweed [14] = assay: Test C preemergence; assay type: in vivo, Ambrosia artemisiifolia; conditions: 0 to 100 scale (0 no effect, 100 complete control)
Procedure, shortened: as §1

sedge, umbrella = assay: Test D flooded paddy test; assay type: in vivo, Cyperus difformis; conditions: 250 g ai/ha, applied to paddy water, visual rating after 13 to 14 days, scale 0 to 100 (0 no effect, 100 complete control)
Procedure, shortened: as §2

green foxtail [15] = assay: Test C postemergence; assay type: in vivo, Setaria viridis; conditions: 10 days
Procedure, shortened: as §1

corn [16] = assay: Test C postemergence; assay type: in vivo, Zea mays; conditions: Zea mays, post-emergence, 240 h, 10 days
Procedure, shortened: as §1

wheat [17] = assay: Test C postemergence; assay type: in vivo, Triticum aestivum; conditions: 10 days
Procedure, shortened: as §1

soybean [18] = assay: Test C postemergence; assay type: in vivo, Glycine max; conditions: 10 days
Procedure, shortened: as §1

ducksalad = assay: Test D flooded paddy test; assay type: in vivo, Heteranthera limosa; conditions: 250 g ai/ha, applied to paddy water, visual rating after 13 to 14 days, scale 0 to 100 (0 no effect, 100 complete control)
Procedure, shortened: as §2

barnyardgrass [19] = assay: Test D flooded paddy test; assay type: in vivo, Echinochloa crus-galli; conditions: 250 g ai/ha, applied to paddy water, visual rating after 13 to 14 days, scale 0 to 100 (0 no effect, 100 complete control)
Procedure, shortened: as §2

barnyardgrass [20] = assay: Test C preemergence; assay type: in vivo, Echinochloa crusgalli; conditions: 0 to 100 scale (0 no effect, 100 complete control)
Procedure, shortened: as §1

ryegrass, Italian [21] = assay: Test C preemergence; assay type: in vivo, Lolium multiflorum; conditions: 0 to 100 scale (0 no effect, 100 complete control)
Procedure, shortened: as §1

blackgrass [22] = assay: Test C postemergence; assay type: in vivo, Alopecurus myosuroides; conditions: Alopecurus myosuroides, post-emergence, 240 h, 10 days, read-out: Plant response rating, Blackgrass
Procedure, shortened: as §1

kochia [23] = assay: Test C postemergence; assay type: in vivo, Bassia scoparia; conditions: 10 days
Procedure, shortened: as §1

[24] = 125 g ai/ha, postemergence, 0 to 100 scale, 0 no effect, 100 complete control
[25] = Postemergence, 500 g ai/ha, visual 0 to 100 scale (0 no effect, 100 complete control)
[26] = Preemergence, 500 g ai/ha, visual rating after 10 days
[27] = Test C, preemergence, 125 g ai/ha
[28] = 125 g ai/ha, postemergence, 0 to 100 scale (0 no effect, 100 complete control)

CC(C)c1ncn(-c2cc3c(c(C(=O)N4C[C@H](C)Oc5c(Cl)cccc54)c2)OCCO3)n1 [Compound 217, [(2S)-8-chloro-2-methyl-2,3-dihydro-1,4-benzoxazin-4-yl]-[7-(3-isopropyl-1,2,4-triazol-1-yl)-2,3-dihydro-1,4-benzodioxin-5-yl]methanone]
Plant response rating, Horseweed (horseweed; [24]): 80 | Plant response rating, Horseweed (horseweed; [25]): 100 | Plant response rating, Soybean (soybean [1]; [26]): 100 | Soybean plant response rating (soybean [1]; [27]): 70 | Plant response rating, Corn (corn [2]; [26]): 40 | Corn plant response rating (corn [2]; [27]): 30 | Plant response rating, Pigweed, Palmer (pigweed, palmer [3]; [24]): 100 | Plant response rating, Pigweed, Palmer (pigweed, palmer [3]; [25]): 100 | Plant response rating, Barnyardgrass (barnyardgrass [4]; [24]): 40 | Plant response rating, Barnyardgrass (barnyardgrass [4]; [25]): 80 | Plant response rating, Rice (Flood) (rice): 20 | Plant response rating, Foxtail, Green (green foxtail [5]; [26]): 100 | Foxtail, Green plant response rating (green foxtail [5]; [27]): 100 | Plant response rating, Kochia (kochia [6]; [26]): 100 | Kochia plant response rating (kochia [6]; [27]): 80 | Plant response rating, Oat, Wild (oat, wild [7]; [24]): 20 | Plant response rating, Oat, Wild (oat, wild [7]; [25]): 40 | Plant response rating, Ryegrass, Italian (ryegrass, Italian [8]; [24]): 70 | Plant response rating, Ryegrass, Italian (ryegrass, Italian [8]; [25]): 90 | Plant response rating, Wheat (wheat [9]; [26]): 90 | Wheat plant response rating (wheat [9]; [27]): 30 | Plant response rating, Oat, Wild (oat, wild [10]; [26]): 90 | Oat, Wild plant response rating (oat, wild [10]; [27]): 90 | Plant response rating, Pigweed, Palmer (pigweed, palmer [11]; [26]): 100 | Pigweed, Palmer plant response rating (pigweed, palmer [11]; [27]): 100 | Plant response rating, Ragweed (ragweed [12]; [24]): 90 | Plant response rating, Ragweed (ragweed [12]; [25]): 100 | Plant response rating, Blackgrass (blackgrass [13]; [26]): 90 | Blackgrass plant response rating (blackgrass [13]; [27]): 60 | Plant response rating, Ragweed (ragweed [14]; [26]): 100 | Ragweed plant response rating (ragweed [14]; [27]): 70 | Plant response rating, Sedge, Umbrella (Flood) (sedge, umbrella): 98 | Plant response rating, Foxtail, Green (green foxtail [15]; [24]): 90 | Plant response rating, Foxtail, Green (green foxtail [15]; [25]): 90 | Corn plant response rating (crop injury, 0 = no effect, 100 = complete kill) at 125 g/ha (corn [16]; [28]): 70% | Corn plant response rating (crop injury, 0 = no effect, 100 = complete kill) at 500 g/ha (corn [16]; [25]): 70% | Plant response rating, Wheat (wheat [17]; [24]): 50 | Plant response rating, Wheat (wheat [17]; [25]): 50 | Plant response rating, Soybean (soybean [18]; [24]): 100 | Plant response rating, Soybean (soybean [18]; [25]): 100 | Plant response rating, Ducksalad (Flood) (ducksalad): 85 | Plant response rating, Barnyardgrass (Flood) (barnyardgrass [19]): 50 | Plant response rating, Barnyardgrass (barnyardgrass [20]; [26]): 100 | Barnyardgrass plant response rating (barnyardgrass [20]; [27]): 90 | Plant response rating, Ryegrass, Italian (ryegrass, Italian [21]; [26]): 100 | Ryegrass, Italian plant response rating (ryegrass, Italian [21]; [27]): 90 | pest or weed control at 125 g/ha (blackgrass [22]; [28]): 90% | pest or weed control at 500 g/ha (blackgrass [22]; [25]): 100% | Plant response rating, Kochia (kochia [23]; [24]): 80 | Plant response rating, Kochia (kochia [23]; [25]): 90
